Data reported in ChEMBL document CHEMBL3992486 (Medchemcomm, 2016).
≈ marks a conversion by molar mass, not a printed value.

How the values were obtained:
[1] = tested on: Mycobacterium tuberculosis; test: Antimycobacterial activity against dormant Mycobacterium tuberculosis H37Ra ATCC 25177 after 12 days by XTT dye based two-fold dilution method; format: functional; conditions: H37Ra ATCC 25177, 288 h
[2] = Selectivity index, ratio of GI50 for human MCF7 cells to MIC for dormant Mycobacterium bovis BCG ATCC 35743; format: toxicity; conditions: pooled result: one value given for 3 cell lines, strains, targets or settings, read-out: Selectivity Index
[3] = Selectivity index, ratio of GI50 for human MCF7 cells to MIC for dormant Mycobacterium tuberculosis H37Ra ATCC 25177; format: toxicity; conditions: pooled result: one value given for 3 cell lines, strains, targets or settings, read-out: Selectivity Index
[4] = tested on: Mycobacterium tuberculosis; test: Antimycobacterial activity against dormant Mycobacterium bovis BCG ATCC 35743 after 12 days by neutral red dye based two-fold dilution method; format: functional; conditions: BCG str. ATCC 35743, 288 h
[5] = Cytotoxicity against human A549 cells by MTT assay; format: cell-based
[6] = Cytotoxicity against human MCF7 cells by MTT assay; format: cell-based

Row | SMILES | MIC [1] | selectivity ratio [2] | selectivity ratio [3] | MIC [4] | GI50 [5] | GI50 [6]
1 | Cc1ccc2cc(C3SCC(=O)N3NC(=O)c3ccncc3)c3nnnn3c2c1 (centres undefined) | 2610 µM (≈ 1060 µg/mL) | 833 | 94.3 | 300 µM (≈ 122 µg/mL) | – | –
2 | Cc1ccc2c(c1)cc(C1SCC(=O)N1NC(=O)c1ccncc1)c1nnnn12 (centres undefined) | 2140 µM (≈ 868 µg/mL) | 29.2 | 115 | 8430 µM (≈ 3420 µg/mL) | – | –
3 | COc1ccc2c(c1)cc(C1SCC(=O)N1NC(=O)c1ccncc1)c1nnnn12 (centres undefined) | 990 µM (≈ 417 µg/mL) | 11.8 | 238 | 140 µM (≈ 59 µg/mL) | – | –
4 | COc1ccc2cc(C3SCC(=O)N3NC(=O)c3ccncc3)c3nnnn3c2c1 (centres undefined) | 1660 µM (≈ 700 µg/mL) | 667 | 143 | 360 µM (≈ 152 µg/mL) | – | –
5 | O=C(NN1C(=O)CSC1c1cc2ccccc2n2nnnc12)c1ccncc1 (centres undefined) | – | 588 | 18.9 | 430 µM (≈ 168 µg/mL) | – | –
6 | Cc1cccc2cc(C3SCC(=O)N3NC(=O)c3ccncc3)c3nnnn3c12 (centres undefined) | 1770 µM (≈ 718 µg/mL) | 476 | 139 | 510 µM (≈ 207 µg/mL) | – | –
7 | CC(=O)O[C@H]1C(=O)[C@@]2(C)[C@H]([C@H](OC(=O)c3ccccc3)[C@]3(O)C[C@H](OC(=O)[C@H](O)[C@@H](NC(=O)c4ccccc4)c4ccccc4)C(C)=C1C3(C)C)[C@]1(OC(C)=O)CO[C@@H]1C[C@@H]2O [PACLITAXEL] | – | – | – | – | 80 µM | 87 µM
8 | CO[C@H]1/C=C/O[C@@]2(C)Oc3c(C)c(O)c4c(O)c(c(/C=N/N5CCN(C)CC5)c(O)c4c3C2=O)NC(=O)/C(C)=C\C=C\[C@H](C)[C@H](O)[C@@H](C)[C@@H](O)[C@@H](C)[C@H](OC(C)=O)[C@@H]1C [RIFAMPIN] | 24 µM (≈ 19.8 µg/mL) | 1750 | > 5000 | 21 µM (≈ 17.3 µg/mL) | – | –
